Structures are written as SMILES. Active and inactive are the calls of the source. How the calls were made is not given here.

In this data set the test system is CCRIS mutagenicity, Ames/micronucleus/aberration tests. Nature of the data set: CCRIS mutagenicity studies.
Setting [1] is: Test System: AMES SALMONELLA TYPHIMURIUM, Strain/Indicator: TA98, Metabolic Activation: NONE, Method: STANDARD PLATE.
The mark [2] stands for this setting: Test System: AMES SALMONELLA TYPHIMURIUM, Strain/Indicator: TA100, Metabolic Activation: NONE, Method: STANDARD PLATE.

Consider `CCOC(=O)CC(=O)CCl`, for which the mutagenic call (Test System: AMES SALMONELLA TYPHIMURIUM, Strain/Indicator: TA98, Metabolic Activation: HAMSTER, LIVER, S-9, AROCLOR 1254, Method: STANDARD PLATE) is “inactive; negative”; the mutagenic call under setting [1] was “inactive; negative”; the mutagenic call (Test System: AMES SALMONELLA TYPHIMURIUM, Strain/Indicator: TA98, Metabolic Activation: RAT, LIVER, S-9, AROCLOR 1254, Method: STANDARD PLATE) was “inactive; negative”; the mutagenic call (Test System: AMES SALMONELLA TYPHIMURIUM, Strain/Indicator: TA100, Metabolic Activation: HAMSTER, LIVER, S-9, AROCLOR 1254, Method: STANDARD PLATE) is “inactive; negative”; the mutagenic call under setting [2] is “inactive; negative”; the mutagenic call (Test System: AMES SALMONELLA TYPHIMURIUM, Strain/Indicator: TA100, Metabolic Activation: RAT, LIVER, S-9, AROCLOR 1254, Method: STANDARD PLATE) is “inactive; negative”. Further, the mutagenic call is, setting by setting: (Test System: AMES SALMONELLA TYPHIMURIUM, Strain/Indicator: TA1535, Metabolic Activation: HAMSTER, LIVER, S-9, AROCLOR 1254, Method: STANDARD PLATE) “inactive; negative”; (Test System: AMES SALMONELLA TYPHIMURIUM, Strain/Indicator: TA1535, Metabolic Activation: NONE, Method: STANDARD PLATE) “inactive; negative”; (Test System: AMES SALMONELLA TYPHIMURIUM, Strain/Indicator: TA1535, Metabolic Activation: RAT, LIVER, S-9, AROCLOR 1254, Method: STANDARD PLATE) “inactive; negative”; (Test System: AMES SALMONELLA TYPHIMURIUM, Strain/Indicator: TA1537, Metabolic Activation: HAMSTER, LIVER, S-9, AROCLOR 1254, Method: STANDARD PLATE) “inactive; negative”; (Test System: AMES SALMONELLA TYPHIMURIUM, Strain/Indicator: TA1537, Metabolic Activation: NONE, Method: STANDARD PLATE) “inactive; negative”; (Test System: AMES SALMONELLA TYPHIMURIUM, Strain/Indicator: TA1537, Metabolic Activation: RAT, LIVER, S-9, AROCLOR 1254, Method: STANDARD PLATE) “inactive; negative”. Besides, the mutagenic call was “inactive; negative” (Test System: AMES SALMONELLA TYPHIMURIUM, Strain/Indicator: TA1538, Metabolic Activation: HAMSTER, LIVER, S-9, AROCLOR 1254, Method: STANDARD PLATE); “inactive; negative” (Test System: AMES SALMONELLA TYPHIMURIUM, Strain/Indicator: TA1538, Metabolic Activation: NONE, Method: STANDARD PLATE); “inactive; negative” (Test System: AMES SALMONELLA TYPHIMURIUM, Strain/Indicator: TA1538, Metabolic Activation: RAT, LIVER, S-9, AROCLOR 1254, Method: STANDARD PLATE); “active; positive. reevaluation of results: positive” (Test System: MOUSE LYMPHOMA, Strain/Indicator: L5178Y (TK+/TK-), Metabolic Activation: NONE, Method: SUSPENSION/PLATE); “active; positive. reevaluation of results: positive” (Test System: MOUSE LYMPHOMA, Strain/Indicator: L5178Y (TK+/TK-), Metabolic Activation: RAT, LIVER, S-9, AROCLOR 1254, Method: SUSPENSION/PLATE).
With `O=C(Cl)c1ccccc1[N+](=O)[O-]`, the mutagenic call runs as follows: (Test System: AMES SALMONELLA TYPHIMURIUM, Strain/Indicator: TA97, Metabolic Activation: HAMSTER, LIVER, S-9, AROCLOR 1254 (10%), Method: PREINCUBATION) “active; positive”; (Test System: AMES SALMONELLA TYPHIMURIUM, Strain/Indicator: TA97, Metabolic Activation: NONE, Method: PREINCUBATION) “active; positive”; (Test System: AMES SALMONELLA TYPHIMURIUM, Strain/Indicator: TA97, Metabolic Activation: RAT, LIVER, S-9, AROCLOR 1254 (10%), Method: PREINCUBATION) “active; positive”; (Test System: AMES SALMONELLA TYPHIMURIUM, Strain/Indicator: TA98, Metabolic Activation: HAMSTER, LIVER, S-9, AROCLOR 1254 (10%), Method: PREINCUBATION) “active; positive”; (Test System: AMES SALMONELLA TYPHIMURIUM, Strain/Indicator: TA98, Metabolic Activation: RAT, LIVER, S-9, AROCLOR 1254 (10%), Method: PREINCUBATION) “active; positive”; (Test System: AMES SALMONELLA TYPHIMURIUM, Strain/Indicator: TA98, Metabolic Activation: RAT, LIVER, S-9, KANECHLOR 500, Method: PREINCUBATION) “active; positive”. Moreover, the mutagenic call is “active; positive” (Test System: AMES SALMONELLA TYPHIMURIUM, Strain/Indicator: TA100, Metabolic Activation: HAMSTER, LIVER, S-9, AROCLOR 1254 (10%), Method: PREINCUBATION); “active; positive” (Test System: AMES SALMONELLA TYPHIMURIUM, Strain/Indicator: TA100, Metabolic Activation: NONE, Method: PREINCUBATION); “active; positive” (Test System: AMES SALMONELLA TYPHIMURIUM, Strain/Indicator: TA100, Metabolic Activation: RAT, LIVER, S-9, AROCLOR 1254 (10%), Method: PREINCUBATION); “active; positive” (Test System: AMES SALMONELLA TYPHIMURIUM, Strain/Indicator: TA100, Metabolic Activation: RAT, LIVER, S-9, KANECHLOR 500, Method: PREINCUBATION); “inactive; negative” (Test System: AMES SALMONELLA TYPHIMURIUM, Strain/Indicator: TA1535, Metabolic Activation: HAMSTER, LIVER, S-9, AROCLOR 1254 (10%), Method: PREINCUBATION); “inactive; negative” (Test System: AMES SALMONELLA TYPHIMURIUM, Strain/Indicator: TA1535, Metabolic Activation: NONE, Method: PREINCUBATION). In addition, under “Test System: AMES SALMONELLA TYPHIMURIUM, Strain/Indicator: TA1535, Metabolic Activation: RAT, LIVER, S-9, AROCLOR 1254 (10%), Method: PREINCUBATION”, the mutagenic call is “inactive; negative”.
With `C=C(C)C(=O)OCC(O)COc1ccc(C(C)(C)c2ccc(OCC(O)COC(=O)C(=C)C)cc2)cc1` (centres undefined), the mutagenic call was “inactive; negative” (Test System: AMES SALMONELLA TYPHIMURIUM, Strain/Indicator: TA97A, Metabolic Activation: NONE, Method: STANDARD PLATE); “inactive; negative” (Test System: AMES SALMONELLA TYPHIMURIUM, Strain/Indicator: TA97A, Metabolic Activation: RAT LIVER S-9, PHENOBARBITAL AND BETA-NAPHTHAFLAVONE, Method: STANDARD PLATE); “inactive; negative” under setting [1]; “inactive; negative” (Test System: AMES SALMONELLA TYPHIMURIUM, Strain/Indicator: TA98, Metabolic Activation: RAT LIVER S-9, PHENOBARBITAL AND BETA-NAPHTHAFLAVONE, Method: STANDARD PLATE); “inactive; negative” under setting [2]; “inactive; negative” (Test System: AMES SALMONELLA TYPHIMURIUM, Strain/Indicator: TA100, Metabolic Activation: RAT LIVER S-9, PHENOBARBITAL AND BETA-NAPHTHAFLAVONE, Method: STANDARD PLATE). Also, the mutagenic call by setting is: (Test System: AMES SALMONELLA TYPHIMURIUM, Strain/Indicator: TA102, Metabolic Activation: NONE, Method: STANDARD PLATE) “inactive; negative”; (Test System: AMES SALMONELLA TYPHIMURIUM, Strain/Indicator: TA102, Metabolic Activation: RAT LIVER S-9, PHENOBARBITAL AND BETA-NAPHTHAFLAVONE, Method: STANDARD PLATE) “inactive; negative”; (Test System: CHINESE HAMSTER OVARY V-79, Strain/Indicator: V79 (HPRT)/6-THIOGUANINE, Metabolic Activation: NONE) “inactive; negative”.

For the origin of these results see PubChem BioAssay AID1259407 (Chemical Carcinogenesis Research Information System (CCRIS), 2018).
